# According to US20250186536A1, “SUSTAINED RELEASE PEPTIDE FORMULATIONS” (RHYTHM PHARMACEUTICALS, INC., priority 2017, published 2025):
# Tests used:
# [1] = Stability analysis of setmelanotide formulations (degradation by HPLC); assay type: physicochemical
# Procedure: Components of exemplary setmelanotide formulations were varied in order to assess their impact on the stability of setmelanotide over time. In a first study, setmelanotide formulations were prepared as described in Example 2 with 30 mg/mL setmelanotide using different forms of GDO: 1) GDO of commercial purity; 2) GDO of commercial purity, which has been further purified to remove fatty acid compounds; and 3) synthetic GDO. The formulations were stored in 1 mL glass syringes equipped with staked stainless steel […] and rubber plungers at 40° C. for up to three months.
# The effect of EDTA concentration on setmelanotide degradation was also investigated in a second study. Syringes containing setmelanotide formulations with higher EDTA along with GDO of varying sources were prepared, and setmelanotide degradation was quantified by HPLC over time. The results of this study are depicted in FIG. 6, and indicate that higher concentrations of EDTA have a small effect on setmelanotide stability in the presence of either GDO of commercial purity or synthetic GDO.
# In a third study, the effect of setmelanotide and EDTA concentrations were explored in the presence of synthetic GDO.
# [2] = Part A single-dose pharmacokinetics of long-acting setmelanotide formulation in healthy obese subjects; assay type: in vivo, human; settings: for AUC(0-inf) / Cmax / Tmax / half-life: human, plasma; for Tmax: read-out: median tmax
# Procedure: (§1) In order to assess the pharmacokinetics of setmelanotide, a two part study was carried out comprising single dose administration (Part A) and multiple dose administration (Part B) with healthy obese subjects.
# (§2) Part A was a rising-dose, placebo-controlled study including up to 3 sequential panels. For each panel, 10 normal obese subjects in good health between the ages of 21 and 54 were assigned to randomly-ordered treatments which included 8 active and 2 placebo treatments. Data acquired from Part A were used to determine the dose and dosing regimen for Part B. In Part B, 12 normal healthy obese patients were randomly assigned to receive either 6 active and 6 placebo treatments. Subjects received once weekly subcutaneous injection of the assigned formulation for 4 weeks. Patients in Part B were housed in the clinical unit for the 28 days.
# (§3) Setmelanotide was formulated in a sterile liquid polar lipid phase consisting of soy phosphatidylcholine, glycerol dioleate, ethanol and citrate buffer. Without being bound by theory, the setmelanotide formulation behaves in a long-acting fashion, wherein when injected subcutaneously, aqueous body fluid is absorbed by the lipid phase to form a gel like depot consisting of liquid crystals formed in situ.
# 10 normal obese subjects enrolled for each dose level of Part A; 8 received active drug, and 2 received placebo. There were 3 dose levels used in the single dose phase which were administered according to the sequential, rising dose design. The single setmelanotide doses administered were in sequence: 2.5 mg, 10 mg, and 30 mg. Setmelanotide concentrations were analyzed and safety was assessed before the next higher dose level was started. The drug was administered subcutaneously on the morning of dosing. Blood samples were collected prior to dosing and at 0.5, 1, 2, 3, 4, 6, 8, 10, 12, 16, 24, 30, and 36 hours post-dose (in the clinic), then at approximately 48, 60, 72, 96, 120, 168, 240, and 336 hours post-dose as outpatients. Based on the PK analysis of the first dose, additional blood samples were included for the 30 mg dose at 21 ([…]) and 28 ([…]) days post-dose. The actual times of blood collection were recorded.
# [3] = Part B multiple-dose pharmacokinetics (once weekly for 4 weeks) in obese subjects; assay type: in vivo, human
# Procedure: as §1, §2, §3
# Twelve (12) obese subjects were enrolled in Part B; 6 received active drug, and 6 were given placebo. Based on results from Part A, setmelanotide 10 mg once weekly was selected as the dose for Part B. Subjects were housed in the clinical facility for the entire 4 weeks of study. Qualified subjects entered the clinical facility the evening before the first dose. Subjects assigned to active treatment received setmelanotide 10 mg subcutaneously in the morning on Day 1. Placebo subjects received the same volume of the placebo injection as the active treatment. Subjects were fasting from the evening before to 4 hours after dosing. Standard lowfat meals were served. Subjects were also dosed on Days 8, 15, and 22 with the treatment given on Day 1.
# Blood samples were collected at a time before dosing and at 0.5, 1, 2, 3, 4, 6, 8, 10, 12, 16, 24, 30, 36, 48, 60, 72, 96, 120, 168, 240, and 336 hours during Week 1 and during Week 4. The actual sampling times were recorded. In addition, blood samples were collected at a time just before dosing for trough setmelanotide concentrations for evaluating the attainment of steady state.
# [4] = 10 mg SC once weekly for 4 weeks
smiles,measurement,setting,value
CC(=O)N[C@@H](CCCNC(=N)N)C(=O)N[C@H]1CSSC[C@@H](C(N)=O)NC(=O)[C@H](Cc2c[nH]c3ccccc23)NC(=O)[C@H](CCCNC(=N)N)NC(=O)[C@@H](Cc2ccccc2)NC(=O)[C@H](Cc2c[nH]cn2)NC(=O)[C@@H](C)NC1=O [setmelanotide],setmelanotide degradation,"[1]; 15 mg/mL formulations compared with 30 mg/mL formulations, synthetic GDO",higher levels of degradation
same,setmelanotide degradation,"[1]; 30 mg/mL formulation prepared with synthetic GDO vs GDO of commercial purity or further purified, 40° C. up to three months, HPLC",lower amount
same,effect of higher EDTA concentration on setmelanotide stability,"[1]; GDO of commercial purity or synthetic GDO, HPLC over time",small effect
same,effect of increasing EDTA concentration on degradation,"[1]; as setmelanotide concentration decreases, synthetic GDO",greater effect
same,dose proportionality of AUC∞,[2]; 2.5 mg dose,less than proportional
same,dose proportionality of AUC,[2]; 10 mg and 30 mg doses,proportional
same,dose proportionality of Cmax,[2]; 2.5 to 30 mg dose range,roughly proportional
same,AUC(0-inf),[2]; single SC dose 2.5 mg,92.9 ng·h/mL
same,Cmax,[2]; single SC dose 2.5 mg,2.92 ng/mL
same,Tmax,[2]; single SC dose 2.5 mg,3.5 h
same,AUC(0-inf),[2]; single SC dose 10 mg,1140 ng·h/mL
same,Cmax,[2]; single SC dose 10 mg,11.5 ng/mL
same,half-life,[2]; single SC dose 10 mg,123 h
same,Tmax,[2]; single SC dose 10 mg,4 h
same,AUC(0-inf),[2]; single SC dose 30 mg,3470 ng·h/mL
same,Cmax,[2]; single SC dose 30 mg,34.1 ng/mL
same,half-life,[2]; single SC dose 30 mg,159 h
same,Tmax,[2]; single SC dose 30 mg,6 h
same,time by which all values were below quantifiable,[2]; single SC dose 2.5 mg,≤ 96 h
same,time past which profile was defined,[2]; single SC dose 10 mg,> 168 h
same,time past which profile was defined,[2]; single SC dose 30 mg,> 168 h
same,earliest plasma sample time in which setmelanotide appeared,"[2]; single SC dose, generally",0.5 h
same,time measurable in plasma after dosing,"[2]; single SC dose, generally",≥ 2 weeks
same,time to maximum concentrations after dosing,"[2]; single SC dose, generally over the three dose levels",about 4 hours
same,early burst effect or dose dumping,[2]; single dose administration,no early burst effect or dose dumping
same,lag-time of absorption,[2]; single dose administration,little to no lag-time
same,accumulation index,[3]; [4],1.46
same,lag in absorption,[3]; [4],no lag in absorption
same,"attainment of steady state (trough concentrations, visual inspection)","[3]; 10 mg SC once weekly, 4 weekly doses",attained during Week 4
same,Cmax,"[3]; human, plasma, 10 mg SC once weekly for 4 weeks",11.4 ng/mL
same,level at 168 h,"[3]; human, plasma, 10 mg SC once weekly for 4 weeks, end of 1-week dosing interval, read-out: mean concentration at 168 hours",2.92 ng/mL
same,Tmax,"[3]; human, plasma, 10 mg SC once weekly for 4 weeks, read-out: median tmax",4 h
